Reference: patent publication US11524968B2, “Heterocyclic compound as a protein kinase inhibitor” (HK inno.N Corporation, priority 2017, dated 2022)

Target: JAK1 (Homo sapiens (Human), UniProt P23458)
Experiment: Analysis of JAK1 activity inhibition ability (ADP-Glo Kinase Assay)
Assay type: biochemical
Settings: JAK1 enzyme, ADP-Glo luminescence, ATP 250 uM, IRS-itide substrate, 30° C. 40 minutes; read-out: IC50
Method in brief: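 JAK1 enzyme, IRS-itide substrate (40 ng/mL) and 250 uM ATP, both as prepared in kinase buffer (Tris-HCl pH 7.5, MgCl2, BSA, DTT), reacted with compound 40 min at 30 °C. ADP formed was detected by ADP-Glo luminescence; IC50 is the concentration giving 50% inhibition versus control.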

Chain of JAK1 (P23458 whole entry): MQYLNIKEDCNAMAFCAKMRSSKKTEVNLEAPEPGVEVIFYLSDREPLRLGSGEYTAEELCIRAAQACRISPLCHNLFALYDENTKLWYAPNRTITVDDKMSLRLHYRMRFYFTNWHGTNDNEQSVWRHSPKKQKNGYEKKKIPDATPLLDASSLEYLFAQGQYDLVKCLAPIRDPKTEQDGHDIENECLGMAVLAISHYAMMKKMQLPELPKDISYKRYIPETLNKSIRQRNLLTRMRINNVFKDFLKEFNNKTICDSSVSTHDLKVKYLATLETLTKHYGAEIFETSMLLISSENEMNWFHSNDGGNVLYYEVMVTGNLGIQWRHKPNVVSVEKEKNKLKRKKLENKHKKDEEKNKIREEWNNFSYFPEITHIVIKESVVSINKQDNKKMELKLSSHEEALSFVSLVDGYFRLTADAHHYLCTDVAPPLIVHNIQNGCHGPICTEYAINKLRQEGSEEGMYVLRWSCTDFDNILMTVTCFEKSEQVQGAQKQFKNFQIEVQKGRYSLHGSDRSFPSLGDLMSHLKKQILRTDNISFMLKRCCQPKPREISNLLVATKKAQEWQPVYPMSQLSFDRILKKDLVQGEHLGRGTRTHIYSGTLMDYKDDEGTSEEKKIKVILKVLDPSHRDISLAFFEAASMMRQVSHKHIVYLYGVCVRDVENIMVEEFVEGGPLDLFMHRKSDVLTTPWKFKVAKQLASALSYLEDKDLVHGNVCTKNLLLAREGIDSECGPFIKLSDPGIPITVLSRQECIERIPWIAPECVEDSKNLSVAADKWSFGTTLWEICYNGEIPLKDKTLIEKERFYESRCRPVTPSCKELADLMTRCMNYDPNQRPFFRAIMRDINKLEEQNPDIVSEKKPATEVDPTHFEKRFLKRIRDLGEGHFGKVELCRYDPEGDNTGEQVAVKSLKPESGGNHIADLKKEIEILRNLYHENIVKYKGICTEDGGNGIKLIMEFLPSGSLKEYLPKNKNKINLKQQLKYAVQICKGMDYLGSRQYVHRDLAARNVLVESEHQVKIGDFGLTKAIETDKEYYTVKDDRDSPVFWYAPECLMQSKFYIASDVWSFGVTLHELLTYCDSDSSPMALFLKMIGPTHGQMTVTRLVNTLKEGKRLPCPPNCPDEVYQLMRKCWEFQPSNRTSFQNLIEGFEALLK

| SMILES | IC50 [nM] |
| --- | --- |
| O=C(Nc1cc(-c2ccc(CNC(=O)N3CCS(=O)(=O)CC3)cc2)c2cc[nH]c2n1)C1CC1 [Example 580, N-(4-(6-(cyclopropanecarboxamido)-1H-pyrrolo[2,3-b]pyridin-4-yl)benzyl)thiomorpholine-4-carboxamide 1,1-dioxide] | 20 to 200 |
| CC(=O)c1cccc(C(=O)N2CC=C(c3cc(NC(=O)C4CC4)nc4[nH]ccc34)C(C)C2)c1 (centres unmarked) [Example 332, N-(4-(1-(3-acetylbenzoyl)-3-methyl-1,2,3,6-tetrahydropyridin-4-yl)-1H-pyrrolo[2,3-b]pyridin-6-yl)cyclopropanecarboxamide] | > 200 |
| O=C(Nc1cc(C2=CCN(C(=O)C3CC(F)(F)C3)CC2)c2cc[nH]c2n1)C1CC1 [Example 260, N-(4-(1-(3,3-difluorocyclobutane-1-carbonyl)-1,2,3,6-tetrahydropyridin-4-yl)-1H-pyrrolo[2,3-b]pyridin-6-yl)cyclopropanecarboxamide] | 20 to 200 |
| C[C@@H]1CN(C(=O)c2ccnc(F)c2)CC=C1c1cc(NC(=O)C2CC2)nc2[nH]ccc12 [Example 395, (S)—N-(4-(1-(2-fluoroisonicotinoyl)-3-methyl-1,2,3,6-tetrahydropyridin-4-yl)-1H-pyrrolo[2,3-b]pyridin-6-yl)cyclopropanecarboxamide] | < 20 |
| CC1CN(C(=O)/C=C/CCBr)CC=C1c1cc(NC(=O)C2CC2)nc2[nH]ccc12 (centres unmarked) [Example 339, (E)-N-(4-(1-(5-bromopent-2-enoyl)-3-methyl-1,2,3,6-tetrahydropyridin-4-yl)-1H-pyrrolo[2,3-b]pyridin-6-yl)cyclopropanecarboxamide] | 20 to 200 |
| CCNC(=S)N1C2C=C(c3cc(NC(=O)C4CC4)nc4[nH]ccc34)CC1CC2 (centres unmarked) [Example 469, N-(4-(8-(ethylcarbamothioyl)-8-azabicyclo[3.2.1]oct-2-en-3-yl)-1H-pyrrolo[2,3-b]pyridin-6-yl)cyclopropanecarboxamide] | < 20 |
| O=C(Nc1cc(N2CCN(S(=O)(=O)N3CCOCC3)CC2)c2cc[nH]c2n1)C1CC1 [Example 673, N-(4-(4-(morpholinosulfonyl)piperazin-1-yl)-1H-pyrrolo[2,3-b]pyridin-6-yl)cyclopropanecarboxamide] | > 200 |
| O=C(Nc1cc(C2=CCC(NS(=O)(=O)N3CCOCC3)CC2)c2cc[nH]c2n1)C1CC1 (centres unmarked) [Example 231, N-(4-(4-(morpholine-4-sulfonamido)cyclohex-1-en-1-yl)-1H-pyrrolo[2,3-b]pyridin-6-yl)cyclopropanecarboxamide] | < 20 |
| O=C(Nc1nc(-c2ccc(NS(=O)(=O)N3CCOCC3)cc2)c2cc[nH]c2n1)C1CC1 [Example 235, N-(4-(4-(morpholine-4-sulfonamido)phenyl)-7H-pyrrolo[2,3-d]pyrimidin-2-yl)cyclopropanecarboxamide] | 20 to 200 |
| O=C(Nc1cc(N2CCN(Cc3ccns3)CC2)c2cc[nH]c2n1)C1CC1 [Example 698, N-(4-(4-(isothiazol-5-ylmethyl)piperazin-1-yl)-1H-pyrrolo[2,3-b]pyridin-6-yl)cyclopropanecarboxamide] | 20 to 200 |
| O=C(Nc1cc(C2=CCN(C(=O)N3CCS(=O)(=O)CC3)CC2)c2cc[nH]c2n1)C1CC1 [Example 445, N-(4-(1-(1,1-dioxidothiomorpholine-4-carbonyl)-1,2,3,6-tetrahydropyridin-4-yl)-1H-pyrrolo[2,3-b]pyridin-6-yl)cyclopropanecarboxamide] | 20 to 200 |
| C[C@@H]1CN(C(=O)c2cccn(C)c2=O)CC=C1c1cc(NC(=O)C2CC2)nc2[nH]ccc12 [Example 405, (S)—N-(4-(3-methyl-1-(1-methyl-2-oxo-1,2-dihydropyridine-3-carbonyl)-1,2,3,6-tetrahydropyridin-4-yl)-1H-pyrrolo[2,3-b]pyridin-6-yl)cyclopropanecarboxamide] | > 200 |
| CC(C)(C)OC(=O)N[C@H]1CCN(c2nc(NC(=O)C3CC3)nc3[nH]ccc23)C1 [Example 696, tert-butyl (S)-(1-(2-(cyclopropanecarboxamido)-7H-pyrrolo[2,3-d]pyrimidin-4-yl)pyrrolidin-3-yl)carbamate] | > 200 |
| N#Cc1ccc(COc2ccc(-c3nc(NC(=O)C4CC4)nc4[nH]cnc34)cc2)cn1 [Example 644, N-(6-(4-((6-cyanopyridin-3-yl)methoxy)phenyl)-9H-purin-2-yl)cyclopropanecarboxamide] | > 200 |
| CCN1CCN(C(=O)Cc2ccc(-c3cc(NC(=O)C4CC4)nc4[nH]ccc34)cc2)CC1 [Example 551, N-(4-(4-(2-(4-ethylpiperazin-1-yl)-2-oxoethyl)phenyl)-1H-pyrrolo[2,3-b]pyridin-6-yl)cyclopropanecarboxamide] | > 200 |
| CC1CN(C(=O)c2ccc(F)c(F)c2)CC=C1c1cc(NC(=O)C2CC2)nc2[nH]ccc12 (centres unmarked) [Example 311, N-(4-(1-(3,4-difluorobenzoyl)-3-methyl-1,2,3,6-tetrahydropyridin-4-yl)-1H-pyrrolo[2,3-b]pyridin-6-yl)cyclopropanecarboxamide] | 20 to 200 |
| CC1(CN2CC=C(c3cc(NC(=O)C4CC4)nc4[nH]ccc34)CC2)COC1 [Example 487, N-(4-(1-((3-methyloxetan-3-yl)methyl)-1,2,3,6-tetrahydropyridin-4-yl)-1H-pyrrolo[2,3-b]pyridin-6-yl)cyclopropanecarboxamide] | > 200 |
| CC1CN(C(=O)c2ccc(-c3ccc(F)cc3)[nH]c2=O)CC=C1c1cc(NC(=O)C2CC2)nc2[nH]ccc12 (centres unmarked) [Example 322, N-(4-(1-(6-(4-fluorophenyl)-2-oxo-1,2-dihydropyridine-3-carbonyl)-3-methyl-1,2,3,6-tetrahydropyridin-4-yl)-1H-pyrrolo[2,3-b]pyridin-6-yl)cyclopropanecarboxamide] | > 200 |
| N#CCC(=O)N1CC=C(c2cc(NC(=O)c3ccco3)nc3[nH]ccc23)CC1 [Example 301, N-(4-(1-(2-cyanoacetyl)-1,2,3,6-tetrahydropyridin-4-yl)-1H-pyrrolo[2,3-b]pyridin-6-yl)furan-2-carboxamide] | > 200 |
| N#CC1(C(=O)N2CC=C(c3cc(NC(=O)C4CC4)nc4[nH]ccc34)CC2)CC1 [Example 259, N-(4-(1-(1-cyanocyclopropane-1-carbonyl)-1,2,3,6-tetrahydropyridin-4-yl)-1H-pyrrolo[2,3-b]pyridin-6-yl)cyclopropanecarboxamide] | > 200 |

Next, values leading:

| IC50 [nM] | SMILES |
| --- | --- |
| 20 to 200 | CCCS(=O)(=O)Nc1ccc(-c2cc(NC(=O)C3CC3)nc3[nH]ccc23)c(C)c1C [Example 132, N-(4-(2,3-dimethyl-4-(propylsulfonamido)phenyl)-1H-pyrrolo[2,3-b]pyridin-6-yl)cyclopropanecarboxamide] |
| < 20 | CC(C)(C)CS(=O)(=O)Nc1ccc(-c2cc(NC(=O)C3CC3)nc3[nH]ccc23)cc1F [Example 79, N-(4-(4-((2,2-dimethylpropyl)sulfonamido)-3-fluorophenyl)-1H-pyrrolo[2,3-b]pyridin-6-yl)cyclopropanecarboxamide] |
| < 20 | Cc1cc(NS(=O)(=O)N(C)CC(F)(F)F)ccc1-c1cc(NC(=O)C2CC2)nc2[nH]ccc12 [Example 228, N-(4-(2-methyl-4-((N-methyl-N-(2,2,2-trifluoroethyl)sulfamoyl)amino)phenyl)-1H-pyrrolo[2,3-b]pyridin-6-yl)cyclopropanecarboxamide] |
| < 20 | O=C(Nc1cc(-c2ccc(NS(=O)(=O)C3CCC3)c(F)c2)c2cc[nH]c2n1)C1CC1 [Example 78, N-(4-(4-(cyclobutanesulfonamido)-3-fluorophenyl)-1H-pyrrolo[2,3-b]pyridin-6-yl)cyclopropanecarboxamide] |
| 20 to 200 | O=C(Nc1cc(-c2ccc(NS(=O)(=O)CC3CCCCC3)c(F)c2)c2cc[nH]c2n1)C1CC1 [Example 70, N-(4-(4-((cyclohexylmethyl)sulfonamido)-3-fluorophenyl)-1H-pyrrolo[2,3-b]pyridin-6-yl)cyclopropanecarboxamide] |
| < 20 | CCc1cc(NS(=O)(=O)CC)ccc1-c1cc(NC(=O)C2CC2)nc2[nH]ccc12 [Example 99, N-(4-(2-ethyl-4-(ethylsulfonamido)phenyl)-1H-pyrrolo[2,3-b]pyridin-6-yl)cyclopropanecarboxamide] |
| 20 to 200 | CCS(=O)(=O)Nc1ccc(-c2cc(NC(=O)C3CC3)nc3[nH]ccc23)cc1C(F)(F)F [Example 98, N-(4-(4-(ethylsulfonamido)-3-(trifluoromethyl)phenyl)-1H-pyrrolo[2,3-b]pyridin-6-yl)cyclopropanecarboxamide] |
| 20 to 200 | CCCS(=O)(=O)Nc1ccc(-c2cc(NC(=O)C3CC3)nc3[nH]ccc23)cc1Cl [Example 63, N-(4-(3-chloro-4-(propylsulfonamido)phenyl)-1H-pyrrolo[2,3-b]pyridin-6-yl)cyclopropanecarboxamide] |
| < 20 | CCCS(=O)(=O)Nc1ccc(-c2nc(NC(=O)C3CC3)nc3[nH]ccc23)cc1 [Example 190, N-(4-(4-(propylsulfonamido)phenyl)-7H-pyrrolo[2,3-d]pyrimidin-2-yl)cyclopropanecarboxamide] |
| < 20 | O=C(Nc1cc(-c2ccc(NS(=O)(=O)c3ccc(F)cc3)cc2)c2cc[nH]c2n1)C1CC1 [Example 13, N-(4-(4-((4-fluorophenyl)sulfonamido)phenyl)-1H-pyrrolo[2,3-b]pyridin-6-yl)cyclopropanecarboxamide] |
| < 20 | CCc1cc(-c2cc(NC(=O)C3CC3)nc3[nH]ccc23)ccc1NS(=O)(=O)CC1(C#N)CC1 [Example 123, N-(4-(4-(((1-cyanocyclopropyl)methyl)sulfonamido)-3-ethylphenyl)-1H-pyrrolo[2,3-b]pyridin-6-yl)cyclopropanecarboxamide] |
| > 200 | CCS(=O)(=O)Nc1ccc(-c2cc(N/C(=N\C)C3CC3)nc3[nH]ccc23)cc1 [Example 714, (Z)—N-(4-(4-(ethylsulfonamido)phenyl)-1H-pyrrolo[2,3-b]pyridin-6-yl)-N′-methylcyclopropanecarboximidamide] |
